# Measurements: patent publication US6992079B2, “Substituted 11-phenyl-dibenzazepine compounds useful for the treatment or prevention of diseases characterized by abnormal cell proliferation” (President Fellows of Harvard College, priority 1997, dated 2006)
# What was measured:
# [1] = tested on: PC-3 human prostate carcinoma; test: Mouse xenograft tumor growth; type: in vivo
# [2] = tested on: dominant negative PKR mutant cells; test: Growth of dominant negative PKR mutant cells; type: cell-based; settings: FIG. 12
# [3] = tested on: Ca^2+ from intracellular pools / capacitative Ca^2+ influx; test: Intracellular Ca2+ release and capacitative Ca2+ influx; type: cell-based; settings: in vitro
# [4] = tested on: cyclin D1 and E expression; test: Cyclin expression and cell cycle in vitro; type: cell-based
# CaSki = test: SRB antiproliferative assay; type: cell-based; settings: Homo sapiens, Ca-Ski, CaSki (Cervical), 5% FCS/5 day incubation
# Source text: (§1) The cells were passaged using Trypsin (Gibco).
# L929 = test: SRB antiproliferative assay; type: cell-based; settings: L929 (Normal mouse), 5% FCS/5 day incubation
# Source text: as §1
# ACHN = test: SRB antiproliferative assay; type: cell-based; settings: Homo sapiens, ACHN (Renal), 5% FCS/5 day incubation
# Source text: as §1
# SK-MEL-28 = test: SRB antiproliferative assay; type: cell-based; settings: Homo sapiens, SK-MEL-28 (Melanoma), 5% FCS/5 day incubation
# Source text: as §1
# HCT-15 = test: SRB antiproliferative assay; type: cell-based; settings: Homo sapiens, HCT-15 (Colon), 5% FCS/5 day incubation
# Source text: as §1
# HTB174 = test: SRB antiproliferative assay; type: cell-based; settings: Homo sapiens, HTB174 (Lung), 5% FCS/5 day incubation
# Source text: as §1
# GM = test: SRB antiproliferative assay; type: cell-based; settings: GM (Normal human), 5% FCS/5 day incubation
# Source text: as §1
# 3T3 = test: SRB antiproliferative assay; type: cell-based; settings: NIH3T3, 3T3 (Normal mouse), 5% FCS/5 day incubation
# Source text: as §1
# SK-OV-3 = test: SRB antiproliferative assay; type: cell-based; settings: Homo sapiens, SK-OV-3 (Ovary), 5% FCS/5 day incubation
# Source text: as §1
# HUVEC = test: SRB antiproliferative assay; type: cell-based; settings: HUVEC (Normal human), 5% FCS/5 day incubation
# Source text: as §1
# DU-145 = test: SRB antiproliferative assay; type: cell-based; settings: Homo sapiens, DU-145 (Prostate), 5% FCS/5 day incubation
# Source text: as §1
# HCC-2998 = test: In-Vitro Testing SRB panel: Colon Cancer; type: cell-based
# Source text: The dose-response curve page of the data package is created by plotting the PGs against the log10 of the corresponding concentration for every cell line. The cell line curves are grouped by subpanel. Horizontal lines are provided at the PG values of […]. The concentrations corresponding to points where the curves cross these lines are the GI50, TGI, and LC50, respectively.
structure (smiles),measurement,setting,value
"O=C(c1ccc([N+](=O)[O-])cc1)N1Cc2ccccc2C(c2ccccc2Cl)c2ccccc21 (centres unmarked) [Compound 28, N-(4′-Nitrobenzoyl)-11-(2′-chlorophenyl)-5,6-dihydro-11H-dibenz[b,e]azepine]",apparent toxicity,[1]; PC-3 mouse xenograph,no sign of apparent toxicity
same,growth of PC-3 human prostate carcinoma,[1]; mouse xenograph,significant inhibitory effects on the growth
same,resistance of dominant negative PKR mutant cells to compound,[2],resistance of dominant negative PKR mutant cells
same,Ca^2+ release from intracellular pools,[3],releases Ca^2+ from intracellular pools
same,capacitative Ca^2+ influx into the cell,[3],inhibits capacitative Ca^2+ influx
same,cell cycle arrest,[4],induction of G0-G1 cell cycle arrest
same,cyclin D1 and E expression,[4],inhibit cyclin D1 and E expression
same,IC50,CaSki,500 nM
same,IC50,L929,600 nM
same,IC50,ACHN,700 nM
same,IC50,SK-MEL-28,400 nM
same,IC50,HCT-15,400 nM
same,IC50,HTB174,100 nM
same,IC50,GM,900 nM
same,IC50,3T3,> 1000 nM
same,IC50,SK-OV-3,> 1000 nM
same,IC50,HUVEC,700 nM
same,IC50,DU-145,900 nM
COc1cccc2c1C(c1ccccc1Cl)c1cc(Cl)ccc1N(C(=O)c1ccc([N+](=O)[O-])cc1)C2 (centres unmarked) [Compound 31],TGI,HCC-2998; HCC-2998,>1.00E−04 Molar
same,Percent Growth,"HCC-2998; HCC-2998, log10 conc -4 Molar",33%
same,Percent Growth,"HCC-2998; HCC-2998, log10 conc -5 Molar",45%
same,Percent Growth,"HCC-2998; HCC-2998, log10 conc -6 Molar",59%
same,Percent Growth,"HCC-2998; HCC-2998, log10 conc -7 Molar",93%
same,Percent Growth,"HCC-2998; HCC-2998, log10 conc -8 Molar",104%
same,GI50,"HCC-2998; Homo sapiens, HCC 2998",4340 nM
same,CC50,"HCC-2998; Homo sapiens, HCC-2998, read-out: LC50 (the source's name)",> 100000 nM
